Results taken from patent publication US20240092744A1, “TRICYCLIC COMPOUND, AND PREPARATION METHOD THEREFOR AND MEDICAL USE THEREOF” (THE NATIONAL INSTITUTES OF PHARMACEUTICAL R&D CO., LTD., priority 2020, published 2024).

Assay: Determination of aldehyde capture rate (nonenal as model aldehyde, HPLC quantification)
Conditions: for Aldehyde consumption (100%): 0.05 mM compound, 0.025 mM nonenal, room temperature; for Capture rate (slope of the capture curve per unit time): higher absolute value of the slope = higher capture rate
Method: In the aldehyde capture test disclosed in the present invention, the stable lipid metabolite, nonenal, was used as the model aldehyde to react with the compound of the Example. The specific protocol was as follows.
0.05 mM of the compounds of the Examples of the present invention were precisely weighed respectively and dissolved in 1.2 mL of a mixed solution (v/v=1:1) of triolein (Aladdin, G105172-5g) and linoleic acid (Aladdin, L100442-25g), respectively. 2.5 mL of PBS (Solarbio, P1020) solution containing 20% Captisol® (Aladdin, Cl25030-25 g) was added, and the solution was stirred at room temperature overnight. After the example compound was completely dissolved, 0.025 mM nonenal (Sigma, 255653-5G) was added, and the solution was stirred vigorously at room temperature. […] The solution was mixed vigorously by vortex for 2 minutes, and centrifuged at a low speed of 1000 r/min for 3 minutes. The supernatant was transferred to an injection vial. The nonenal in the reaction mixture was analyzed quantitatively by high performance liquid chromatography. The adduct resulted from the example compound of the present invention and nonenal was analyzed qualitatively by high performance liquid chromatography-mass spectrometry.
Liquid Chromatograph: Waters I Class;
Column: ACQUITY UPLC HSS T3 1.8 μm;
Column temperature: 40° C.;
Liquid chromatography condition: mobile phase A: acetonitrile containing 0.1% formic acid; B: water containing 0.1% formic acid;
Injection volume: 0.5 mL.
Gradient of the mobile phases: […]
In the developed detection method, the retention time of the model aldehyde nonenal was 2.42 minutes. • Mass spectrometry conditions: • Mass spectrometer: Waters TQ-S micro • Ion source: ESI^+ • Capillary voltage: 0.5 kV • Cone voltage: 10V • Source temperature: 150° C. • Degassing temperature: 500° C., degassing flow: 1000 L/Hr • SIM mode • m/z: 225.24 [(mExample 1−OH)+H]^+, 365.42 [madduct 1+H]^+
The time-varying diagram of the capture reaction of the compounds of the examples of the present invention to nonenal is shown in FIG. 1.

Structure (SMILES): CN1c2ccccc2Oc2cc(C(C)(C)O)c(N)cc21 [Example 5, 2-(2-Amino-10-methyl-10H-phenoxazin-3-yl)propan-2-ol]
- Aldehyde consumption (100%) (135 minutes): 15.06%
- Capture rate (slope of the capture curve per unit time) (135 minutes): −0.14
- Aldehyde consumption (100%) (180 minutes): 19.05%
- Capture rate (slope of the capture curve per unit time) (180 minutes): −0.10

Structure (SMILES): CC(C)(C)OC(=O)N1c2ccccc2Oc2cc(C(C)(C)O)c(N)cc21 [Example 29, tert-Butyl 2-amino-3-(2-hydroxypropan-2-yl)-10H-phenoxazine-10-carboxylate]
- Aldehyde consumption (100%) (135 minutes): 6.52%
- Capture rate (slope of the capture curve per unit time) (135 minutes): −0.04
- Aldehyde consumption (100%) (180 minutes): 6.53%
- Capture rate (slope of the capture curve per unit time) (180 minutes): −0.04

Structure (SMILES): CC(C)(O)c1cc2c(cc1N)Oc1nccnc1O2 [Example 23, 2-(8-Aminobenzo[5,6][1,4]dioxino[2,3-b]pyrazin-7-yl)propan-2-ol]
- Aldehyde consumption (100%) (135 minutes): 16.24%
- Capture rate (slope of the capture curve per unit time) (135 minutes): −0.12
- Aldehyde consumption (100%) (180 minutes): 17.89%
- Capture rate (slope of the capture curve per unit time) (180 minutes): −0.11

Structure (SMILES): Cn1c2ccccc2c2cc(N)c(C(C)(C)O)cc21 [Example 3, 2-(3-Amino-9-methyl-9H-carbazol-2-yl)propan-2-ol]
- Aldehyde consumption (100%) (135 minutes): 0.11%
- Capture rate (slope of the capture curve per unit time) (135 minutes): −0.01
- Aldehyde consumption (100%) (180 minutes): 1.38%
- Capture rate (slope of the capture curve per unit time) (180 minutes): −0.02

Structure (SMILES): CC(C)(O)c1cc2c(cc1N)N(Cc1ccccc1)c1ccccc1O2 [Example 27, 2-(2-Amino-10-benzyl-10H-phenoxazin-3-yl)propan-2-ol]
- Aldehyde consumption (100%) (135 minutes): 14.37%
- Capture rate (slope of the capture curve per unit time) (135 minutes): −0.11
- Aldehyde consumption (100%) (180 minutes): 17.87%
- Capture rate (slope of the capture curve per unit time) (180 minutes): −0.10

Structure (SMILES): CC(C)(O)c1cc2c(cc1N)Oc1cc(F)ccc1O2 [Example 20]
- Aldehyde consumption (100%) (135 minutes): 23.91%
- Capture rate (slope of the capture curve per unit time) (135 minutes): −0.18
- Aldehyde consumption (100%) (180 minutes): 25.45%
- Capture rate (slope of the capture curve per unit time) (180 minutes): −0.14

Structure (SMILES): CC(C)(O)c1cc2c(cc1N)Oc1cccnc1O2 [Example 19, 2-(7-Aminobenzo[5,6][1,4]dioxino[2,3-b]pyridin-8-yl)propan-2-ol]
- Aldehyde consumption (100%) (135 minutes): 19.40%
- Capture rate (slope of the capture curve per unit time) (135 minutes): −0.14
- Aldehyde consumption (100%) (180 minutes): 36.90%
- Capture rate (slope of the capture curve per unit time) (180 minutes): −0.25

Structure (SMILES): CC(C)(O)c1nc2c(cc1N)oc1ccccc12 [Example 10, 2-(3-Aminobenzofuro[3,2-b]pyridin-2-yl)propan-2-ol]
- Aldehyde consumption (100%) (135 minutes): 9.15%
- Capture rate (slope of the capture curve per unit time) (135 minutes): −0.08
- Aldehyde consumption (100%) (180 minutes): 9.48%
- Capture rate (slope of the capture curve per unit time) (180 minutes): −0.06

Structure (SMILES): CC(C)(O)c1cc2c(cc1N)Oc1ccc(Cl)cc1O2 [Example 26]
- Aldehyde consumption (100%) (135 minutes): 2.02%
- Capture rate (slope of the capture curve per unit time) (135 minutes): −0.02
- Aldehyde consumption (100%) (180 minutes): 5.34%
- Capture rate (slope of the capture curve per unit time) (180 minutes): −0.03

Structure (SMILES): CN1c2ccccc2Oc2cc(N)c(C(C)(C)O)cc21 [Example 6, 2-(3-Amino-10-methyl-10H-phenoxazin-2-yl)propan-2-ol]
- Aldehyde consumption (100%) (135 minutes): 5.40%
- Capture rate (slope of the capture curve per unit time) (135 minutes): −0.08
- Aldehyde consumption (100%) (180 minutes): 11.94%
- Capture rate (slope of the capture curve per unit time) (180 minutes): −0.07

Structure (SMILES): COC1c2ccccc2-c2cc(C(C)(C)O)c(N)cc21 (stereo not drawn) [Example 28, 2-(2-Amino-9-methoxy-9H-fluoren-3-yl)propan-2-ol]
- Aldehyde consumption (100%) (135 minutes): 3.77%
- Capture rate (slope of the capture curve per unit time) (135 minutes): −0.02
- Aldehyde consumption (100%) (180 minutes): 4.37%
- Capture rate (slope of the capture curve per unit time) (180 minutes): −0.03

Structure (SMILES): CC(C)(O)c1cc2c(cc1N)Oc1ccc(F)cc1O2 [Example 21]
- Aldehyde consumption (100%) (135 minutes): 6.92%
- Capture rate (slope of the capture curve per unit time) (135 minutes): −0.05
- Aldehyde consumption (100%) (180 minutes): 10.06%
- Capture rate (slope of the capture curve per unit time) (180 minutes): −0.05

Structure (SMILES): CC(C)(O)c1cc2c(cc1N)C(C)(C)c1ccccc1-2 [Example 14, 2-(2-Amino-9,9-dimethyl-9H-fluoren-3-yl)propan-2-ol]
- Aldehyde consumption (100%) (135 minutes): 36.30%
- Capture rate (slope of the capture curve per unit time) (135 minutes): −0.19
- Aldehyde consumption (100%) (180 minutes): 44.51%
- Capture rate (slope of the capture curve per unit time) (180 minutes): −0.28

Structure (SMILES): Cn1c2ccc(Cl)cc2c2cc(N)c(C(C)(C)O)nc21 [Example 13, 2-(3-Amino-6-chloro-9-methyl-9H-pyrido[2,3-b]indol-2-yl)propan-2-ol]
- Aldehyde consumption (100%) (135 minutes): 6.03%
- Capture rate (slope of the capture curve per unit time) (135 minutes): −0.12
- Aldehyde consumption (100%) (180 minutes): 14.83%
- Capture rate (slope of the capture curve per unit time) (180 minutes): −0.08

Structure (SMILES): CC(C)(O)c1cc2c(cc1N)Oc1cc(Cl)ccc1O2 [Example 25]
- Aldehyde consumption (100%) (135 minutes): 4.87%
- Capture rate (slope of the capture curve per unit time) (135 minutes): −0.03
- Aldehyde consumption (100%) (180 minutes): 4.88%
- Capture rate (slope of the capture curve per unit time) (180 minutes): −0.03

Structure (SMILES): CC(C)(O)c1cc2oc3ccccc3c2cc1N [Example 8, 2-(2-Aminodibenzo[b,d]furan-3-yl)propan-2-ol]
- Aldehyde consumption (100%) (135 minutes): 8.30%
- Capture rate (slope of the capture curve per unit time) (135 minutes): −0.22
- Aldehyde consumption (100%) (180 minutes): 17.80%
- Capture rate (slope of the capture curve per unit time) (180 minutes): −0.07

Structure (SMILES): Cn1c2cc(Cl)ccc2c2cc(N)c(C(C)(C)O)nc21 [Example 12, 2-(3-Amino-7-chloro-9-methyl-9H-pyrido[2,3-b]indol-2-yl)propan-2-ol]
- Aldehyde consumption (100%) (135 minutes): 17.18%
- Capture rate (slope of the capture curve per unit time) (135 minutes): −0.24
- Aldehyde consumption (100%) (180 minutes): 30.31%
- Capture rate (slope of the capture curve per unit time) (180 minutes): −0.16

Structure (SMILES): CC(C)(O)c1cc2c(cc1N)Oc1ncccc1O2 [Example 15, 2-(8-Aminobenzo[5,6][1,4]dioxino[2,3-b]pyridin-7-yl)propan-2-ol]
- Aldehyde consumption (100%) (135 minutes): 23.50%
- Capture rate (slope of the capture curve per unit time) (135 minutes): −0.15
- Aldehyde consumption (100%) (180 minutes): 30.00%
- Capture rate (slope of the capture curve per unit time) (180 minutes): −0.17

Structure (SMILES): CC(C)(O)c1nc2oc3ccccc3c2cc1N [Example 1, 2-(3-Aminobenzofuro[2,3-b]pyridin-2-yl)propan-2-ol]
- Aldehyde consumption (100%) (135 minutes): 24.57%
- Capture rate (slope of the capture curve per unit time) (135 minutes): −0.13
- Aldehyde consumption (100%) (180 minutes): 34.69%
- Capture rate (slope of the capture curve per unit time) (180 minutes): −0.14

Structure (SMILES): CC(C)(O)c1nc2c(cc1N)Oc1ccccc1O2 [Example 9, 2-(3-Aminobenzo[5,6][1,4]dioxino[2,3-b]pyridin-2-yl)propan-2-ol]
- Aldehyde consumption (100%) (135 minutes): 0.10%
- Capture rate (slope of the capture curve per unit time) (135 minutes): −0.01
- Aldehyde consumption (100%) (180 minutes): 0.10%
- Capture rate (slope of the capture curve per unit time) (180 minutes): −0.04

Structure (SMILES): Cn1c2ccccc2c2nc(C(C)(C)O)c(N)cc21 [Example 11, 2-(3-Amino-5-methyl-5H-pyrido[3,2-b]indol-2-yl)propan-2-ol]
- Aldehyde consumption (100%) (135 minutes): 7.71%
- Capture rate (slope of the capture curve per unit time) (135 minutes): −0.06
- Aldehyde consumption (100%) (180 minutes): 12.33%
- Capture rate (slope of the capture curve per unit time) (180 minutes): −0.08
